The test system of one experiment is LNCaP ITS+ cells. As to the kind of experiment: Plate colony formation (clonal proliferation) assay, serum-free (ITS+)-grown LNCaP. The class given is cell-based, human. An excerpt: (§1) Prostate cancer is one of the most common cancers in European and American males and has a high mortality rate (Landis et al, 1998; Rosenthal, 1998). Early disease is managed conservatively in Europe although in selected patients surgery is curative. In advanced disease, androgen ablation can produce symptomatic improvement, but the tumour often re-emerges in an androgen- independent and incurable form. One proposed treatment for androgen-independent prostate carcinoma is differentiation ther- apy, in which agents such as all-trans-retinoic acid (ATRA), 9-cis- retinoic acid and 1, 25-dihydroxyvitamin D3 (D3 ) are used to induce growth arrest, differentiation and sometimes apoptosis of the tumour cells (Liang et al, 1999; de Vos et al, 1997; Skowronski et al, 1994; Hedlund et al, 1997). ATRA and synthetic analogues exert their biological effects by binding to two families of retinoid receptors, […]. These are ligand-dependent transcription factors of the steroid/thyroid hormone nuclear receptor superfamily (Chambon 1994; Boehm et al, 1995). Activated RARs bind to retinoic acid-responsive elements (RAREs) in the promoters of genes and thus regulate gene expression. They also antagonize the activity of the tran- scription factor AP1 and thereby down-regulate the expression of some AP1-activated genes (Nagpal et al, 1995). One approach to unravelling the contributions of RAR sub-types to these actions has been the development of synthetic retinoids with selective activities at individual RARs and RXRs. For example, the diaryl- acetylenic retinoids allow separation of transactivation and AP1 antagonism functions at RAR (Nagpal et al, 1995). Recently, compounds that are selective for particular RAR sub-types have been synthesized: these include both agonists and antagonists (Chandraratna, 1995; Teng et al, 1999; Johnson et al, 1999). The functional selectivity of these compounds may open the way to achieving differentiation or apoptosis of tumour cells with minimal systemic side effects (Chandraratna, 1995). Cell lines that are commonly used in the evaluation of investiga- tional agents for prostate cancer include LNCaP, DU-145 and PC- 3. […] These lines are relatively insensitive to growth inhibition and induction of apoptosis by ATRA and by synthetic agonists. […] Fenretinide (4HPR) induces apoptosis of LNCaP and of PC-3 cells at 1-5 M and 25 µM, respectively (Pienta et al, 1993; Heish and Wu, 1997). Pfahl and colleagues examined the growth inhibitory effects of a panel of receptor-selective retinoids against DU145 and PC-3 cells and achieved complete growth inhibition and induction of apoptosis between 1 M and 10 M (Lu et al, 1999). […] Antagonists of retinoic acid receptors (RARs) are potent growth inhibitors of prostate carcinoma cells LA Hammond1 , CH Van Krinks2 , J Durham2 , SE Tomkins2 , RD Burnett3 , EL Jones1 , RAS Chandraratna3 and G Brown2 Divisions of 1 Cancer Studies and of 2 Immunity and Infection, University of Birmingham Medical School, Edgbaston, Birmingham B15 2TT, UK and 3 Retinoid Research, Allergan Inc., Irvine, California, USA Summary Novel synthetic antagonists of retinoic acid receptors (RARs) have been developed. To avoid interference by serum retinoids when testing these compounds, we established serum-free grown sub-lines (>3 years) of the prostate carcinoma lines LNCaP, PC3 and DU145. […] A component(s) of serum and of LNCaP-conditioned medium diminishes the activity of antagonists: this factor is not the most likely candidates IGF-1 and EGF. In vitro studies of RAR antagonists together with data from RAR-null mice lead to the hypothesis that RAR-regulated gene transcription is necessary for the survival and maintenance of prostate epithelium. […]

The next experiment deals with LNCaP cells. The note with it: ref Pienta et al, 1993; Heish and Wu, 1997; cited from earlier work.
The test system of the next experiment is PC-3 cells. Also noted: method as in Pienta et al, 1993; Heish and Wu, 1997. The note with it: ref Pienta et al, 1993; Heish and Wu, 1997; cited from earlier work.
Experiment [1] concerns the target T1, RARα (Homo sapiens, UniProt P10276).
T1 sequence (P10276 1-462): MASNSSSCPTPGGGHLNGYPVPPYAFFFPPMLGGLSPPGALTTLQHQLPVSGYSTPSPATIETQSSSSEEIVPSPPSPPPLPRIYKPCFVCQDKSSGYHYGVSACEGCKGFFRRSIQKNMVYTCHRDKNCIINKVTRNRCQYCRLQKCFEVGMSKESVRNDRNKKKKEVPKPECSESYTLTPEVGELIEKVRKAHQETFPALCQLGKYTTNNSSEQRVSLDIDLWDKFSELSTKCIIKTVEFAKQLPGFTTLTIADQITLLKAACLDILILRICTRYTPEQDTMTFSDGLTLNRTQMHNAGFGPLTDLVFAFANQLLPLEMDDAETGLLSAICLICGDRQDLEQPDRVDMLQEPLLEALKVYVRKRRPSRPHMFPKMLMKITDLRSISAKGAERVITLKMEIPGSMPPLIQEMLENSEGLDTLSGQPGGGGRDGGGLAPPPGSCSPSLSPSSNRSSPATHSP
The experiment in a line: Binding to baculovirus-expressed RARα. Also on record: made in house. To be noted: baculovirus-expressed receptor.
Text: as §1

The target in experiment [2] is T2, RARβ (Homo sapiens, UniProt P10826).
T2 sequence (P10826 1-455): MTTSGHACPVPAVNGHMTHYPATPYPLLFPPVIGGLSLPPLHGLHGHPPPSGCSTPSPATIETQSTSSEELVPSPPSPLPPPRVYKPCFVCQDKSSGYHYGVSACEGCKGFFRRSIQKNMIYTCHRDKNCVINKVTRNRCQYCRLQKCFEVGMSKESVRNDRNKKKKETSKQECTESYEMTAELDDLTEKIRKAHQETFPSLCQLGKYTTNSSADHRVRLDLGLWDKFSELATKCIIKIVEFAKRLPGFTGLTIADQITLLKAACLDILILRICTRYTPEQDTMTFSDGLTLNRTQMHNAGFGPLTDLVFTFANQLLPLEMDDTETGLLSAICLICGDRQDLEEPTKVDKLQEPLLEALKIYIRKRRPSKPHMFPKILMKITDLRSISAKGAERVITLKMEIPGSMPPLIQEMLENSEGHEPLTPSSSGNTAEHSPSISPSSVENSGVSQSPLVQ
As to the kind of experiment: Binding to baculovirus-expressed RARβ. To be noted: baculovirus-expressed receptor. Also noted: made in house.
Text: as §1

The next experiment deals with T3, RARγ (Homo sapiens, UniProt P13631).
T3 sequence (P13631 1-454): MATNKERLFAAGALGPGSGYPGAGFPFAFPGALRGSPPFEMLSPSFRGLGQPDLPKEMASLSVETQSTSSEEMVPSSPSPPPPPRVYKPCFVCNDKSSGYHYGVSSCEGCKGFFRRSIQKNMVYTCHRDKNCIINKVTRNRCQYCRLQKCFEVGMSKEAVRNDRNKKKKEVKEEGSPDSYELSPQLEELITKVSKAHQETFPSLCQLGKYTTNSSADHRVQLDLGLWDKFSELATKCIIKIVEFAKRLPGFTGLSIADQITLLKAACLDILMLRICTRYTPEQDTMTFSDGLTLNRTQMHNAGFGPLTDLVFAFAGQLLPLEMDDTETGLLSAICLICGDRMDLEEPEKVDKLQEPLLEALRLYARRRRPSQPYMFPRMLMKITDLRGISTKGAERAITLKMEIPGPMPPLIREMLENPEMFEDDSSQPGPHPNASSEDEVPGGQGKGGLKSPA
The experiment in a line: Binding to baculovirus-expressed RARγ. Also on record: made in house. The note with it: baculovirus-expressed receptor.
Text: as §1

For experiment [3], the target named is T1, RARα. As to the kind of experiment: Transactivation by RARα in doubly transfected CV-1 cells (MTV-TREp-LUC reporter). In kind it is cell-based. Also noted: expressed in transfected cells; host or cells: CV-1 cells. An excerpt: (§2) Prostate cancer is one of the most common cancers in European and American males and has a high mortality rate (Landis et al, 1998; Rosenthal, 1998). Early disease is managed conservatively in Europe although in selected patients surgery is curative. In advanced disease, androgen ablation can produce symptomatic improvement, but the tumour often re-emerges in an androgen- independent and incurable form. One proposed treatment for androgen-independent prostate carcinoma is differentiation ther- apy, in which agents such as all-trans-retinoic acid (ATRA), 9-cis- retinoic acid and 1, 25-dihydroxyvitamin D3 (D3 ) are used to induce growth arrest, differentiation and sometimes apoptosis of the tumour cells (Liang et al, 1999; de Vos et al, 1997; Skowronski et al, 1994; Hedlund et al, 1997). ATRA and synthetic analogues exert their biological effects by binding to two families of retinoid receptors, the RARs (RAR, RAR and RAR) and the RXRs (RXR, RXR and RXR). These are ligand-dependent transcription factors of the steroid/thyroid hormone nuclear receptor superfamily (Chambon 1994; Boehm et al, 1995). Activated RARs bind to retinoic acid-responsive elements (RAREs) in the promoters of genes and thus regulate gene expression. They also antagonize the activity of the tran- scription factor AP1 and thereby down-regulate the expression of some AP1-activated genes (Nagpal et al, 1995). One approach to unravelling the contributions of RAR sub-types to these actions has been the development of synthetic retinoids with selective activities at individual RARs and RXRs. For example, the diaryl- acetylenic retinoids allow separation of transactivation and AP1 antagonism functions at RAR (Nagpal et al, 1995). Recently, compounds that are selective for particular RAR sub-types have been synthesized: these include both agonists and antagonists (Chandraratna, 1995; Teng et al, 1999; Johnson et al, 1999). The functional selectivity of these compounds may open the way to achieving differentiation or apoptosis of tumour cells with minimal systemic side effects (Chandraratna, 1995). […]

In experiment [4] the target is T2, RARβ. As to the kind of experiment: Transactivation by RARβ in doubly transfected CV-1 cells (MTV-TREp-LUC reporter). Also on record: expressed in transfected cells; host or cells: CV-1 cells; key to EC50 transactivation RARβ: NA: inactive; WA: weak partial agonist. The class given is cell-based.
Text: as §2

Here are results for 3 compounds from PMC2364081, “Antagonists of retinoic acid receptors (RARs) are potent growth inhibitors of prostate carcinoma cells” (British Journal of Cancer, 2001).

`C/C(=C\c1ccc(C(=O)O)cc1)c1ccc2c(c1)C(C)(C)CCC2(C)C` [TTNPB, reference compound]: the “inhibition of colony formation” value in the experiment with LNCaP ITS+ cells (TTNPB alone at 10 -6 M) is on record as > 90%; with LNCaP ITS+ cells (TTNPB alone at 10 -7 M), ~ 10%.
Regarding `CC1=C(/C=C/C(C)=C/C=C/C(C)=C/C(=O)Nc2ccc(O)cc2)C(C)(C)CCC1` [Fenretinide], the concentration inducing apoptosis was 1 to 5 µM in the experiment on LNCaP cells and 25 µM in the experiment with PC-3 cells.
With `CC1(C)CCC(C)(C)c2cc(C(=O)Nc3cc(F)c(C(=O)O)c(F)c3)c(O)cc21` [AGN194078], the results for the Kd on RARα [1], on RARβ [2] and on RARγ were 4 nM, > 5 µM and > 5 µM, respectively. At RARα [3], this compound came in with an EC50 of 140 nM. For the same compound, on RARβ [4], the “EC50 transactivation RARβ” value is “WA”.

As a reminder, the Kd is a measure of binding affinity in units of concentration. As a reminder, the EC50 is the concentration needed to bring the measured effect to its halfway point.
